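Following 48 hours of exposure in 96-well plates, responses at five concentrations were used to interpolate endpoints linearly. Abbreviation: GI50, concentration required for 50% inhibition of growth. Definition used: TGI = concentration required for complete inhibition of growth.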
Assays:
Assay in all cases: NCI tumour cell line growth inhibition, 48 h
MDA-MB-231 breast = system: MDA-MB-231 breast
HCC-2998 colon = system: HCC-2998 colon
PC-3 prostate = system: PC-3 prostate
EKVX NSCLC = system: EKVX NSCLC
LOX IMVI melanoma = system: LOX IMVI melanoma
HS 578T breast = system: HS 578T breast
NCI-H226 lung = system: NCI-H226 lung
NCI-H23 lung = system: NCI-H23 lung
HCT-116 colon = system: HCT-116 colon
ACHN renal = system: ACHN renal
SW-620 colon = system: SW-620 colon
UACC-62 melanoma = system: UACC-62 melanoma
CAKI-1 renal = system: CAKI-1 renal
BT-549 breast = system: BT-549 breast
NCI/ADR-RES ovarian = system: NCI/ADR-RES ovarian
HOP-62 NSCLC = system: HOP-62 NSCLC
KM12 colon = system: KM12 colon
786-0 renal = system: 786-0 renal
HT29 colon = system: HT29 colon
A549 NSCLC = system: A549 NSCLC
SF-295 CNS = system: SF-295 CNS
UACC-257 melanoma = system: UACC-257 melanoma
SK-OV-3 ovarian = system: SK-OV-3 ovarian
HCT-15 colon = system: HCT-15 colon
NCI-H522 lung = system: NCI-H522 lung
M14 melanoma = system: M14 melanoma
OVCAR-4 ovarian = system: OVCAR-4 ovarian
OVCAR-5 ovarian = system: OVCAR-5 ovarian
A498 renal = system: A498 renal
IGROV1 ovarian = system: IGROV1 ovarian
MOLT-4 leukemia = system: MOLT-4 leukemia
SK-MEL-5 melanoma = system: SK-MEL-5 melanoma
SK-MEL-2 melanoma = system: SK-MEL-2 melanoma
TK-10 renal = system: TK-10 renal
U251 CNS = system: U251 CNS
SF-539 CNS = system: SF-539 CNS
RPMI-8226 leukemia = system: RPMI-8226 leukemia
COLO 205 colon = system: COLO 205 colon
HOP-92 NSCLC = system: HOP-92 NSCLC
DU-145 prostate = system: DU-145 prostate
CCRF-CEM leukemia = system: CCRF-CEM leukemia
K-562 leukemia = system: K-562 leukemia
MALME-3M melanoma = system: MALME-3M melanoma
SN12C renal = system: SN12C renal
SNB-75 CNS = system: SNB-75 CNS
HL-60(TB) leukemia = system: HL-60(TB) leukemia
OVCAR-3 ovarian = system: OVCAR-3 ovarian
OVCAR-8 ovarian = system: OVCAR-8 ovarian
MCF7 breast = system: MCF7 breast
SNB-19 CNS = system: SNB-19 CNS
RXF 393 renal = system: RXF 393 renal
SR leukemia = system: SR leukemia
SF-268 CNS = system: SF-268 CNS
NCI-H460 lung = system: NCI-H460 lung
UO-31 renal = system: UO-31 renal

CC(=O)O[C@H](C[C@H](C(C)C)N(C)C(=O)[C@@H](NC(=O)[C@H]1CCCCN1C)C(C)C)c1nc(C(=O)N[C@@H](Cc2ccccc2)C[C@H](C)C(=O)O)c(C(C)C)s1
GI50 (MDA-MB-231 breast): < 3.33 nM
TGI (MDA-MB-231 breast): > 15500 nM
GI50 (HCC-2998 colon): < 3.33 nM
TGI (HCC-2998 colon): 2000 nM
GI50 (PC-3 prostate): < 3.33 nM
TGI (PC-3 prostate): > 33300 nM
GI50 (EKVX NSCLC): 3.36 nM
TGI (EKVX NSCLC): > 33300 nM
GI50 (LOX IMVI melanoma): < 3.33 nM
TGI (LOX IMVI melanoma): 10500 nM
GI50 (HS 578T breast): < 3.33 nM
TGI (HS 578T breast): 3080 nM
GI50 (NCI-H226 lung): 3.35 nM
TGI (NCI-H226 lung): 382 nM
GI50 (NCI-H23 lung): < 3.33 nM
TGI (NCI-H23 lung): > 33300 nM
GI50 (HCT-116 colon): < 3.33 nM
TGI (HCT-116 colon): 773 nM
GI50 (ACHN renal): 4.58 nM
TGI (ACHN renal): > 18500 nM
GI50 (SW-620 colon): < 3.33 nM
TGI (SW-620 colon): > 33300 nM
GI50 (UACC-62 melanoma): < 3.33 nM
TGI (UACC-62 melanoma): > 33300 nM
GI50 (CAKI-1 renal): < 3.33 nM
TGI (CAKI-1 renal): > 27400 nM
GI50 (BT-549 breast): 3.38 nM
TGI (BT-549 breast): 14.7 nM
GI50 (NCI/ADR-RES ovarian): 69.1 nM
GI50 (HOP-62 NSCLC): < 3.33 nM
TGI (HOP-62 NSCLC): > 33300 nM
GI50 (KM12 colon): < 3.33 nM
GI50 (786-0 renal): < 3.33 nM
TGI (786-0 renal): 9510 nM
GI50 (HT29 colon): < 3.33 nM
TGI (HT29 colon): > 33300 nM
GI50 (A549 NSCLC): 4.95 nM
TGI (A549 NSCLC): > 33300 nM
GI50 (SF-295 CNS): < 3.33 nM
TGI (SF-295 CNS): 297 nM
GI50 (UACC-257 melanoma): > 33300 nM
TGI (UACC-257 melanoma): > 33300 nM
GI50 (SK-OV-3 ovarian): < 3.33 nM
TGI (SK-OV-3 ovarian): > 33300 nM
GI50 (HCT-15 colon): 10.1 nM
TGI (HCT-15 colon): > 33300 nM
GI50 (NCI-H522 lung): < 3.33 nM
TGI (NCI-H522 lung): 499 nM
GI50 (M14 melanoma): < 3.33 nM
TGI (M14 melanoma): 161 nM
GI50 (OVCAR-4 ovarian): 6.73 nM
TGI (OVCAR-4 ovarian): > 33300 nM
GI50 (OVCAR-5 ovarian): 17.6 nM
TGI (OVCAR-5 ovarian): > 33300 nM
GI50 (A498 renal): < 3.33 nM
TGI (A498 renal): < 3.33 nM
GI50 (IGROV1 ovarian): < 3.33 nM
TGI (IGROV1 ovarian): > 33300 nM
GI50 (MOLT-4 leukemia): < 3.33 nM
TGI (MOLT-4 leukemia): > 33300 nM
GI50 (SK-MEL-5 melanoma): < 3.33 nM
TGI (SK-MEL-5 melanoma): 6.41 nM
GI50 (SK-MEL-2 melanoma): < 3.33 nM
TGI (SK-MEL-2 melanoma): 19200 nM
GI50 (TK-10 renal): 475 nM
TGI (TK-10 renal): > 33300 nM
GI50 (U251 CNS): < 3.33 nM
TGI (U251 CNS): > 33300 nM
GI50 (SF-539 CNS): < 3.33 nM
TGI (SF-539 CNS): 3.91 nM
GI50 (RPMI-8226 leukemia): < 3.33 nM
TGI (RPMI-8226 leukemia): > 22600 nM
GI50 (COLO 205 colon): < 3.33 nM
TGI (COLO 205 colon): < 33 nM
GI50 (HOP-92 NSCLC): 5.21 nM
TGI (HOP-92 NSCLC): > 15500 nM
GI50 (DU-145 prostate): < 3.33 nM
TGI (DU-145 prostate): 82.7 nM
GI50 (CCRF-CEM leukemia): < 3.33 nM
TGI (CCRF-CEM leukemia): > 33300 nM
GI50 (K-562 leukemia): < 3.33 nM
TGI (K-562 leukemia): > 33300 nM
GI50 (MALME-3M melanoma): < 3.33 nM
TGI (MALME-3M melanoma): > 33300 nM
GI50 (SN12C renal): < 3.33 nM
TGI (SN12C renal): > 33300 nM
GI50 (SNB-75 CNS): < 3.33 nM
TGI (SNB-75 CNS): 29100 nM
GI50 (HL-60(TB) leukemia): < 3.33 nM
TGI (HL-60(TB) leukemia): < 3.33 nM
GI50 (OVCAR-3 ovarian): < 3.33 nM
TGI (OVCAR-3 ovarian): 5.98 nM
GI50 (OVCAR-8 ovarian): < 3.33 nM
TGI (OVCAR-8 ovarian): > 33300 nM
GI50 (MCF7 breast): < 3.33 nM
TGI (MCF7 breast): > 33300 nM
GI50 (SNB-19 CNS): < 3.33 nM
TGI (SNB-19 CNS): > 33300 nM
GI50 (RXF 393 renal): < 3.33 nM
TGI (RXF 393 renal): > 33300 nM
GI50 (SR leukemia): < 3.33 nM
TGI (SR leukemia): > 33300 nM
GI50 (SF-268 CNS): < 3.33 nM
TGI (SF-268 CNS): > 33300 nM
GI50 (NCI-H460 lung): < 3.33 nM
TGI (NCI-H460 lung): 5050 nM
GI50 (UO-31 renal): 16.1 nM
TGI (UO-31 renal): > 33300 nM
